Data from ChEMBL document CHEMBL5346961, “Discovery and Evaluation of 3-Quinoxalin Urea Derivatives as Potent, Selective, and Orally Available ATM Inhibitors Combined with Chemotherapy for the Treatment of Cancer via Goal-Oriented Molecule Generation and Virtual Screening” (J Med Chem, 2023).
Active and inactive are the calls of the source. The calls are words filed in the database; no cut-off is given here.

Legend:
[1] = molecular target: T1, Serine-protein kinase ATM (Homo sapiens, UniProt Q13315); experiment: Inhibition of ATM (unknown origin) assessed as remaining activity at 0.01 uM preincubated with compound for 30 mins followed by substrate addition and measured after 2 hrs by HTRF method relative to control; settings: time 2.5 hrs
[2] = system: HCT-116; experiment: Antiproliferative activity against human HCT-116 cells assessed as cell survival at 1 uM incubated for 6 days by MTT assay relative to control; type: functional; settings: HCT-116, 144 h, time 6 day, read-out: Survival
[3] = system: HCT-116; experiment: Antiproliferative activity against human HCT-116 cells assessed as reduction in cell viability incubated for 6 days by MTT assay; type: functional, cell-based; settings: HCT-116, 144 h
[4] = system: MCF7; experiment: Antiproliferative activity against human MCF7 cells assessed as reduction in cell viability incubated for 6 days by MTT assay; type: functional, cell-based; settings: MCF7, 144 h
[5] = system: HCT-116; experiment: Inhibition of colony formation in human HCT-116 cells assessed as assessed as fold change in IC50 in presence of ionizing radiation; type: functional
[6] = system: MCF7; experiment: Synergistic antiproliferative activity against human MCF7 cells assessed as fold increase in etoposide IC50 at 200 nM measured after 6 days by MTT assay; type: functional; settings: time 6 day
[7] = system: MCF7; experiment: Synergistic antiproliferative activity against human MCF7 cells assessed as combination index at […] measured after 6 days in presence irinotecan by MTT assay; type: functional; settings: dose lower 100 µM; time 6 day
[8] = system: SW-620; experiment: Synergistic antiproliferative activity against human SW620 cells assessed as fold increase in irinotecan IC50 at 100 nM measured after 6 days by MTT assay; type: functional; settings: time 6 day
[9] = system: SW-620; experiment: Synergistic antiproliferative activity against human SW620 cells assessed as fold increase in irinotecan IC50 at 200 nM measured after 6 days by MTT assay; type: functional; settings: time 6 day
[10] = system: SW-620; experiment: Synergistic inhibition of colony formation in human SW620 cells assessed as fold increase in irinotecan IC50 at 200 nM preincubated for 1 hr followed by irinotecan addition and measured after 1 week by crystal violet staining based […] assay; type: functional; settings: time 169 hrs
[11] = system: HCT-116; experiment: Induction of apoptosis in human HCT-116 cells assessed as viable cells at 4 uM measured after 2 days in presence of irinotecan by AnnexinV-FITC/PI staining based analysis (reference value: 72.8%); type: functional; settings: HCT-116, 48 h, time 2 day, read-out: Activity
[12] = system: HCT-116; experiment: Induction of apoptosis in human HCT-116 cells assessed as viable cells at 1 uM measured after 2 days by AnnexinV-FITC/PI staining based analysis (reference value: 72.8%); type: functional; settings: HCT-116, 48 h, time 2 day, read-out: Activity
[13] = system: HCT-116; experiment: Induction of apoptosis in human HCT-116 cells assessed as viable cells at 2 uM measured after 2 days by AnnexinV-FITC/PI staining based analysis (reference value: 72.8%); type: functional; settings: HCT-116, 48 h, time 2 day, read-out: Activity
[14] = system: HCT-116; experiment: Induction of apoptosis in human HCT-116 cells assessed as viable cells at 4 uM measured after 2 days by AnnexinV-FITC/PI staining based analysis (reference value: 72.8%); type: functional; settings: HCT-116, 48 h, time 2 day, read-out: Activity
[15] = system: HCT-116; experiment: Induction of apoptosis in human HCT-116 cells assessed as early apoptotic cells at 1 uM measured after 2 days by AnnexinV-FITC/PI staining based analysis (reference value: 14.4%); type: functional; settings: time 2 day
[16] = system: HCT-116; experiment: Induction of apoptosis in human HCT-116 cells assessed as early apoptotic cells at 2 uM measured after 2 days by AnnexinV-FITC/PI staining based analysis (reference value: 14.4%); type: functional; settings: time 2 day
[17] = system: HCT-116; experiment: Induction of apoptosis in human HCT-116 cells assessed as necrotic cells at 1 uM measured after 2 days by AnnexinV-FITC/PI staining based analysis (reference value: 0.64%); type: functional; settings: time 2 day
[18] = system: HCT-116; experiment: Induction of apoptosis in human HCT-116 cells assessed as necrotic cells at 4 uM measured after 2 days by AnnexinV-FITC/PI staining based analysis (reference value: 0.64%); type: functional; settings: time 2 day
[19] = system: HCT-116; experiment: Induction of apoptosis in human HCT-116 cells assessed as viable cells at 2 uM measured after 2 days in presence of irinotecan by AnnexinV-FITC/PI staining based analysis (reference value: 72.8%); type: functional; settings: HCT-116, 48 h, time 2 day, read-out: Activity
[20] = system: HCT-116; experiment: Induction of apoptosis in human HCT-116 cells assessed as necrotic cells at 2 uM measured after 2 days in presence of irinotecan by AnnexinV-FITC/PI staining based analysis (reference value: 0.64%); type: functional; settings: time 2 day
[21] = system: HCT-116; experiment: Induction of cell cycle arrest in human HCT-116 cells at 1 to 4 uM measured after 48 hrs by propidium iodide staining based flow cytometry analysis; type: functional; settings: dose 1-4 µM
[22] = system: HCT-116; experiment: Induction of cell cycle arrest in human HCT-116 cells assessed as loss in accumulation of cells at G0/G1 phase at 1 to 4 uM measured after 48 hrs in presence of irinotecan by propidium iodide staining based flow cytometry analysis; type: functional; settings: dose 1-4 µM
[23] = molecular target: T1, Serine-protein kinase ATM; experiment: Inhibition of ATM (unknown origin) at 1 uM in presence of [gamma33P-ATP] by scintillation counting method relative to control
[24] = Efflux ratio of apparent permeability in human Caco-2 cells; type: ADME, cell-based
[25] = Cmax in Balb/C mouse at 10 mg/kg,iv measured upto 48 hrs by LC-MS/MS analysis; type: ADME, organism-based; design: time < 48 hrs, dose 10 mg/kg, route iv; settings: in vivo
[26] = Tmax in Balb/C mouse at 10 mg/kg,po measured upto 48 hrs by LC-MS/MS analysis; type: ADME, organism-based; settings: in vivo
[27] = Half life in Balb/C mouse at 10 mg/kg,po measured upto 48 hrs by LC-MS/MS analysis; type: ADME, organism-based; settings: in vivo
[28] = Clearance in Balb/C mouse at 10 mg/kg,po measured upto 48 hrs by LC-MS/MS analysis; type: ADME, organism-based; settings: in vivo
[29] = AUC (0 to t) in Balb/C mouse at 10 mg/kg,iv measured upto 48 hrs by LC-MS/MS analysis; type: ADME, organism-based; design: time < 48 hrs, dose 10 mg/kg, route iv; settings: in vivo
[30] = system: SW-620; experiment: Antitumor activity against human SW620 cells xenografted in BALB/c nude mouse model assessed as tumor growth inhibition at 40 mg/kg, po administered once daily for 3 days weekly for 21 days by caliper method; type: functional, organism-based; settings: time 21.0 day
[31] = system: SW-620; experiment: Antitumor activity against human SW620 cells xenografted in BALB/c nude mouse model assessed as tumor growth inhibition at 40 mg/kg, po administered once daily for 3 days weekly after irinotecan post treatment for 21 days by caliper method relative to control; type: functional; settings: SW-620, 504 h, time 21 day, read-out: TGI
[32] = system: SW-620; experiment: Antitumor activity against human SW620 cells xenografted in BALB/c nude mouse model assessed as tumor growth inhibition administered orally once daily for 3 days weekly after irinotecan post treatment for 21 days by caliper method; type: functional, cell-based; settings: dose 20-40 mg/kg, route po, time 21.0 day
[33] = Toxicity in BALB/c nude mouse assessed as reduction in body weight at 20 to 40 mg/kg, po administered once daily for 3 days weekly after irinotecan post treatment for 21 days in presence of irinotecan relative to control; type: organism-based; design: scale not given: the % may be the effect or the level left; settings: in vivo, 504 h, dose 20-40 mg/kg, time 21 day
[34] = system: HCT-116; experiment: Induction of DNA damage in human HCT-116 cells assessed as reduction in p21 phosphorylation at T145 residue at 0.5 to 2 uM measured after 4 hrs by Western blot analysis; type: functional, cell-based; settings: dose 0.5-2 µM

T1 sequence (Q13315 whole entry): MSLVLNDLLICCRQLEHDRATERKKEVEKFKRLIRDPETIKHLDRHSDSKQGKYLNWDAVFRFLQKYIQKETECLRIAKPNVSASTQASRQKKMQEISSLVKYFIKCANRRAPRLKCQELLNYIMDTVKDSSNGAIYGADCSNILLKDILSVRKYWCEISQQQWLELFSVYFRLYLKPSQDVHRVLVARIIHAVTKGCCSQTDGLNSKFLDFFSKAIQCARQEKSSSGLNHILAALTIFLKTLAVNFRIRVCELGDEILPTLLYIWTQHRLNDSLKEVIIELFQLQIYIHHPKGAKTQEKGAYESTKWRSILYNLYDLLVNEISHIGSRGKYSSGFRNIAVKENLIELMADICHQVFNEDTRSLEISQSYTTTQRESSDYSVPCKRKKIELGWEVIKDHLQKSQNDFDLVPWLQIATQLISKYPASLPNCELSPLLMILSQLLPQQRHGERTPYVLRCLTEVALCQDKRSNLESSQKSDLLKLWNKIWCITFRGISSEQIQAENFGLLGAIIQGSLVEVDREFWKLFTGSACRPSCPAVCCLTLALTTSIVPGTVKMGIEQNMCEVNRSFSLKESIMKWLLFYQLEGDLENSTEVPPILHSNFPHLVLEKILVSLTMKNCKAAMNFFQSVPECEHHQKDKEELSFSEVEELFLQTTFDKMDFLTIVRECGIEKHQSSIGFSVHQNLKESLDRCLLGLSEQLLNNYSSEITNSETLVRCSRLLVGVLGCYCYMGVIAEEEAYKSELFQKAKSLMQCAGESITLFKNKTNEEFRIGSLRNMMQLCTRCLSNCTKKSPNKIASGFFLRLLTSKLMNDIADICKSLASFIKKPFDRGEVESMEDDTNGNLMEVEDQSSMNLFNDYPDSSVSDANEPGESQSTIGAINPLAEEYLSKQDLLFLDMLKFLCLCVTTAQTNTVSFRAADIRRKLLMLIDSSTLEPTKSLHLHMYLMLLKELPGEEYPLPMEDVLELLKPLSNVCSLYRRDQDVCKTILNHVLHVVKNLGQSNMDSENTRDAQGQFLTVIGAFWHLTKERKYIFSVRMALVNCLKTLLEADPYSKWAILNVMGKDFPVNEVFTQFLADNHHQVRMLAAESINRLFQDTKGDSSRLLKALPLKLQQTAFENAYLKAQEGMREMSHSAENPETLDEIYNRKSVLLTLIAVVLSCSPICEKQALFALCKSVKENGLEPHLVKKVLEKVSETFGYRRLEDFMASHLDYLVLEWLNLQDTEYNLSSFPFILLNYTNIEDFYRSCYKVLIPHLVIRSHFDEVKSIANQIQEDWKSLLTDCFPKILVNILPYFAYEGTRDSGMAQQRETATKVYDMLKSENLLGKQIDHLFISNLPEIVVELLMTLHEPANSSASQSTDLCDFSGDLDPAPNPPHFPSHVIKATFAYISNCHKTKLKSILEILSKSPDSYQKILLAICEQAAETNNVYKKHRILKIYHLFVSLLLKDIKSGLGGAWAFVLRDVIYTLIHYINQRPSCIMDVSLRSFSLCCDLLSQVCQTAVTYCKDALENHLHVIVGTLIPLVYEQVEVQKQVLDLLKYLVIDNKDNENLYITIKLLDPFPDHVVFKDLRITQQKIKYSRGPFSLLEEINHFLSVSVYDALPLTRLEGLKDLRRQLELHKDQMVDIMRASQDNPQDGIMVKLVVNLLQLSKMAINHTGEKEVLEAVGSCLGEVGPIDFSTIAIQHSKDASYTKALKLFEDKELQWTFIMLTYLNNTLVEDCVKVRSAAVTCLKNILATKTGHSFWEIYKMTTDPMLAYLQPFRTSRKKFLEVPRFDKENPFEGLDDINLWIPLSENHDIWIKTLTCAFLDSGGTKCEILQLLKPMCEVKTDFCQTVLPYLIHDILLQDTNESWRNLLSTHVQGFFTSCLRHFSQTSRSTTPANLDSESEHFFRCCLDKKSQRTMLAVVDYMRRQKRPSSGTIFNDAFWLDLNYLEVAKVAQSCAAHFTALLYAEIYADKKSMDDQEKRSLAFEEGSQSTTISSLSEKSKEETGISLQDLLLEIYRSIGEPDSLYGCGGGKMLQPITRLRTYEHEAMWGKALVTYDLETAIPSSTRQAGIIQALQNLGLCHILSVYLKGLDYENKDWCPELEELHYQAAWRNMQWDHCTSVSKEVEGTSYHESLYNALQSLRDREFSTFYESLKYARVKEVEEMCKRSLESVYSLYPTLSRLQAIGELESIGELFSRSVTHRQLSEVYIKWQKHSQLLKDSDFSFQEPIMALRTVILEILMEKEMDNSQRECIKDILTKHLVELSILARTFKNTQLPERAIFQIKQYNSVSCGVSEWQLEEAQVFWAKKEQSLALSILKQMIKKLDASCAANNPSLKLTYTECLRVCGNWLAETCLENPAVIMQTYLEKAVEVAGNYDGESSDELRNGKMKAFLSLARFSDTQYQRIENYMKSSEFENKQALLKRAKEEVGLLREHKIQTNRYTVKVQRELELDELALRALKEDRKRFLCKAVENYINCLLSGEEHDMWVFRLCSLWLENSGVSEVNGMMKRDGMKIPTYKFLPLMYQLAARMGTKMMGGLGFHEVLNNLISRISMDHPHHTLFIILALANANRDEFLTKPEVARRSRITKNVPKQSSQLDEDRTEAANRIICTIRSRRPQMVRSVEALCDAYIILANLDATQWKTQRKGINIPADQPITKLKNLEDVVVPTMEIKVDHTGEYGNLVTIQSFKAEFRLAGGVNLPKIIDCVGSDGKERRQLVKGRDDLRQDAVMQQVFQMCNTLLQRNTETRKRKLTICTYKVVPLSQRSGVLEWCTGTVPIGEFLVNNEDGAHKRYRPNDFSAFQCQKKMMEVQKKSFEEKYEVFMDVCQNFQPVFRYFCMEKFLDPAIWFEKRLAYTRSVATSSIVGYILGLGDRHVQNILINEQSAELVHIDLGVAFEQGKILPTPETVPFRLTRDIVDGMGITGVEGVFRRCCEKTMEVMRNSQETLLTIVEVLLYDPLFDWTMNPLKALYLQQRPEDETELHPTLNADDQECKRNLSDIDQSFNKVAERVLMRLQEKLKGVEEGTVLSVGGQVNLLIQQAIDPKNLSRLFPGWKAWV

CC(C)NC(=O)N(C)c1cnc2ccc(-c3ccc(OCCCN4CCCCC4)nc3)cc2n1
Activity [1]: 2%
viability at 1 µM [2]: > 83%
IC50 [3]: > 9 µM
IC50 [4]: > 9 µM
fold change (FC) [5]: 750
fold change (FC) [6]: 5.2
CI [7]: <1
fold change (FC) [8]: 2.8
fold change (FC) [9]: 4.5
fold change (FC) [10]: 11.5
viability at 4 µM [11]: 7.37%
viability at 1 µM [12]: 68%
viability at 2 µM [13]: 67.3%
viability at 4 µM [14]: 68.3%
Activity [15]: 18.3%
Activity [16]: 17.6%
Activity [17]: 1.01%
Activity [18]: 0.6%
viability at 2 µM [19]: 14%
Activity [20]: 1.67%
Activity [21]: inactive
Activity [22]: Active
inhibition [23]: < 50%
efflux ratio [24]: 2.37
Cmax [25]: 6790 ng/mL
Tmax [26]: 0.33 h
t1/2 [27]: 3.37 h
CL/F [28]: 12.2 mL/min/kg
AUCt [29]: 13027.01 ng·h/mL
Activity [30]: inactive
inhibition in vivo at 40 mg/kg [31]: 85.3%
Activity [32]: Dose-Dependent Effect
Activity [33]: < 12%
Activity [34]: Active
